According to patent publication US12195482B1 (Arcus Biosciences, Inc., priority 2022, dated 2025):

Key:
recombinant human TYRO3 = target: T1, recombinant human TYRO3 (Homo sapiens, UniProt Q06418); experiment: Biochemical potency, HTRF KinEASE-TK kinase assay; details: 1 nM TYRO3, 700 μM ATP
T1 construct: purchased Invitrogen
T1 sequence (Q06418 41-890): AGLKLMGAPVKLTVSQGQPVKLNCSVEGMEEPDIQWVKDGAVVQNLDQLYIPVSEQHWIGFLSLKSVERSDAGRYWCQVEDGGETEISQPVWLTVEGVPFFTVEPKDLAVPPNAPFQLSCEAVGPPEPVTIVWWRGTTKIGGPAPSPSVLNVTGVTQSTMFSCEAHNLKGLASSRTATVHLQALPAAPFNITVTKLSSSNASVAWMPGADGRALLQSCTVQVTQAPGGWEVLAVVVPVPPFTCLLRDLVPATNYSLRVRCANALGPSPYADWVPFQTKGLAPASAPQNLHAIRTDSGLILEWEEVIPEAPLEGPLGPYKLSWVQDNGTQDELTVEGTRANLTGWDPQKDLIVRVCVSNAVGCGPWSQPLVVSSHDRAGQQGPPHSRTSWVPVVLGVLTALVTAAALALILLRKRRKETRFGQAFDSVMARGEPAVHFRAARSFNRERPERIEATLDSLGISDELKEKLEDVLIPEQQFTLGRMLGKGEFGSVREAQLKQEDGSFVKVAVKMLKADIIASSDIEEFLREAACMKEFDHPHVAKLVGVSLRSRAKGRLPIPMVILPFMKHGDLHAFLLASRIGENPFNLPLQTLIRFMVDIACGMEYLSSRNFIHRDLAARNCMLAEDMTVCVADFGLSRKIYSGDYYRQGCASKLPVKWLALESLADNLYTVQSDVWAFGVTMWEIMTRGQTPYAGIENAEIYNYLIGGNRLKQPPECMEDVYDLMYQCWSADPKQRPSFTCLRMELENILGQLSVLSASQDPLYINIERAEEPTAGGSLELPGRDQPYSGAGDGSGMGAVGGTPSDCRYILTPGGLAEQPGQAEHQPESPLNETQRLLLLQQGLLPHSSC
Method: (§1) Measurement of Biochemical Compound Potency of Axl Inhibitors
(§2) Purified recombinant human AXL, TYRO3 and MER proteins were purchased from Invitrogen™. 10 nM AXL, 2 nM TYRO3 or MER were incubated with varying concentrations of compounds in 50 mM HEPES, pH 7.4, 10 mM MgCl2, 0.01% BSA, 1 mM DTT and 2% DMSO in a total volume of 20 μl in a 384-well microplate (Corning™ #3640) at RT for 1 h. The AXL, TYRO3 and MER enzymatic reaction was initiated by transferring 10 μl of enzyme and compound mixture into 10 μl of 1.6 μM TK Substrate-biotin (HTRF® KinEASE-TK kit, Cisbio) and 1400 μM ATP pre-incubated in 50 mM HEPES, pH 7.4, 10 mM MgCl2, 0.01% BSA, 1 mM DTT in a 384-well microplate (Corning™ #3640) at RT, giving the final reaction conditions: 5 nM AXL, 1 nM TYRO3 or MER, 800 nM TK Substrate-biotin and 700 μM ATP in 50 mM HEPES, pH 7.4, 10 mM MgCl2, 0.01% BSA, 1 mM DTT and 1% DMSO with varying concentrations of compounds. Following 2 h incubation at RT, the AXL, TYRO3 and MER enzymatic reaction was stopped by transfer of 10 μl of reaction into 10 μl of detection mix (400 nM Streptavidin-XL665, 200-fold dilution TK Antibody-Cryptate and detection buffer, HTRF® KinEASE-TK kit, Cisbio) in a white 384-well microplate (Perkin Elmer, OptiPlate 384). After 1 h incubation at RT, the plate was put into a plate reader (Evision) to read at 665/620 nm (acceptor/donor) for HTRF. The value of the DMSO blank (MIN inhibition=100% activity) was used as a negative control. The positive control was established by adding 5 μl of enzyme and DMSO mixture into 10 μl of detection mix followed by addition of 5 μl of TK Substrate-biotin and ATP mixture (MAX inhibition=0% activity). To calculate the percent activity, Equation 1 was used. Ratio665/620 is the value at a given compound concentration: […]

recombinant human MER = target: T2, recombinant human MER (Homo sapiens, UniProt Q12866); experiment: Biochemical potency, HTRF KinEASE-TK kinase assay; details: 1 nM MER, 700 μM ATP
T2 construct: purchased Invitrogen
T2 sequence (Q12866 21-999): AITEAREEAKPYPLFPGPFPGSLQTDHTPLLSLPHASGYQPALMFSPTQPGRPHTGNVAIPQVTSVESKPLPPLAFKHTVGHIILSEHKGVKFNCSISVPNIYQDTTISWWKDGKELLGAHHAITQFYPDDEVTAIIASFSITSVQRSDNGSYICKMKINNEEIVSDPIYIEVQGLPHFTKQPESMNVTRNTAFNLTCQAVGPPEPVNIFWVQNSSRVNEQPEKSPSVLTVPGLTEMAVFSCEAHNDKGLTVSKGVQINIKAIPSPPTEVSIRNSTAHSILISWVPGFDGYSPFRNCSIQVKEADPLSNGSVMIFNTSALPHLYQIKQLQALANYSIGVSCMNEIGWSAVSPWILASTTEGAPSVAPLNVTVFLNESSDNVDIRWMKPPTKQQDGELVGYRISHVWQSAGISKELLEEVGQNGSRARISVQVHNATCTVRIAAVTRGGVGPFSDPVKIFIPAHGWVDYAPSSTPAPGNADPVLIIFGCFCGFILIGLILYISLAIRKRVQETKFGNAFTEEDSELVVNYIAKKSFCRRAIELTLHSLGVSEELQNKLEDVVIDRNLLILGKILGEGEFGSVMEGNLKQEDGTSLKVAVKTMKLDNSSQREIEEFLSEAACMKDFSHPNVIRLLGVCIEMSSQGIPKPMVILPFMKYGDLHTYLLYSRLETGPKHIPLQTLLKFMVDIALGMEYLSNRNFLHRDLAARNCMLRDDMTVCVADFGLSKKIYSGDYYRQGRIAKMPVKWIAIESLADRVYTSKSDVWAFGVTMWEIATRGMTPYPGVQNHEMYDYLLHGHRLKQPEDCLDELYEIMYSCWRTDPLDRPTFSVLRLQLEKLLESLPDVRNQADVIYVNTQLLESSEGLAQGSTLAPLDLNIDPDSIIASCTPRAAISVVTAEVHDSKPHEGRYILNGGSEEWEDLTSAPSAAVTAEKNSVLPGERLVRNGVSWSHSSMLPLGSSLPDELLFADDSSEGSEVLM
Method: as §1, §2

Structure (SMILES)	IC50 (recombinant human TYRO3)	IC50 (recombinant human MER)
O=c1ccccn1-c1ccc(-c2n[nH]c3ncc(-c4ccc5c(c4)CC[C@@H](N4C6COCC4C6)CC5)cc23)cc1 [Example 31, 1-[4-[5-[(7S)-7-(3-Oxa-6-azabicyclo[3.1.1]heptan-6-yl)-6,7,8,9-tetrahydro-5H-benzo[7]annulen-3-yl]-1H-pyrazolo[3,4-b]pyridin-3-yl]phenyl]pyridin-2-one]	> 1000 nM	> 1000 nM
CN(C)C(=O)c1ccccc1-c1ccc(-c2c[nH]c3ncc(-c4ccc5c(c4)CC[C@@H](N4C6COCC4C6)CC5)cc23)cn1 [Example 170, N,N-Dimethyl-2-(5-{5-[(7S)-7-{3-oxa-6-azabicyclo[3.1.1]heptan-6-yl}-6,7,8,9-tetrahydro-5H-benzo[7]annulen-2-yl]-1H-pyrrolo[2,3-b]pyridin-3-yl}pyridin-2-yl)benzamide]	100 to 1000 nM	100 to 1000 nM
c1cnc(-c2ccc(-c3n[nH]c4ncc(-c5ccc6c(c5)CC[C@@H](N5C7COCC5C7)CC6)cc34)cc2)c(O[C@@H]2CCOC2)c1 [Example 104, 6-[(7S)-2-[3-(4-{3-[(3R)—Oxolan-3-yloxy]pyridin-2-yl}phenyl)-1H-pyrazolo[3,4-b]pyridin-5-yl]-6,7,8,9-tetrahydro-5H-benzo[7]annulen-7-yl]-3-oxa-6-azabicyclo[3.1.1]heptane]	100 to 1000 nM	100 to 1000 nM
OC1(c2cccnc2-c2ccc(-c3c[nH]c4ncc(-c5ccc6c(c5)CC[C@@H](N5C7COCC5C7)CC6)cc34)cc2)CCC1 [Example 22, 1-[2-[4-[5-[(7S)-7-(3-Oxa-6-azabicyclo[3.1.1]heptan-6-yl)-6,7,8,9-tetrahydro-5H-benzo[7]annulen-3-yl]-1H-pyrrolo[2,3-b]pyridin-3-yl]phenyl]pyridin-3-yl]cyclobutan-1-ol]	< 100 nM	< 100 nM
COc1cccnc1-c1ccc(-c2c[nH]c3ncc(-c4ccc5c(c4)CC[C@@H](N4C6COCC4C6)CC5)cc23)cc1 [Example 164, 6-[(7S)-2-{3-[4-(3-Methoxypyridin-2-yl)phenyl]-1H-pyrrolo[2,3-b]pyridin-5-yl}-6,7,8,9-tetrahydro-5H-benzo[7]annulen-7-yl]-3-oxa-6-azabicyclo[3.1.1]heptane]	< 100 nM	100 to 1000 nM
CC(C)(O)c1cccnc1-c1ccc(-c2n[nH]c3ncc(-c4ccc5c(c4)CC[C@@H](N4C6COCC4C6)CC5)cc23)nc1 [Example 100, 2-(6′-{5-[(7S)-7-{3-Oxa-6-azabicyclo[3.1.1]heptan-6-yl}-6,7,8,9-tetrahydro-5H-benzo[7]annulen-2-yl]-1H-pyrazolo[3,4-b]pyridin-3-yl}-[2,3′-bipyridin]-3-yl)propan-2-ol]	100 to 1000 nM	> 1000 nM
Cc1ncc(C)c(-c2ccc(-c3n[nH]c4ncc(-c5ccc6c(c5)CC[C@@H](N5C7COCC5C7)CC6)cc34)cc2)n1 [Example 122, 6-[(7S)-2-{3-[4-(2,5-Dimethylpyrimidin-4-yl)phenyl]-1H-pyrazolo[3,4-b]pyridin-5-yl}-6,7,8,9-tetrahydro-5H-benzo[7]annulen-7-yl]-3-oxa-6-azabicyclo[3.1.1]heptane]	< 100 nM	100 to 1000 nM
O=C1CCCN1c1cccnc1-c1ccc(-c2n[nH]c3ncc(-c4ccc5c(c4)CC[C@@H](N4C6COCC4C6)CC5)cc23)cc1 [Example 177, 1-[2-(4-{5-[(7S)-7-{3-Oxa-6-azabicyclo[3.1.1]heptan-6-yl}-6,7,8,9-tetrahydro-5H-benzo[7]annulen-2-yl]-1H-pyrazolo[3,4-b]pyridin-3-yl}phenyl)pyridin-3-yl]pyrrolidin-2-one]	100 to 1000 nM	100 to 1000 nM
c1cnc(-c2ccc(-c3c[nH]c4ncc(-c5ccc6c(c5)CC[C@@H](N5C7COCC5C7)CC6)cc34)cc2)c(C2CC2)c1 [Example 178, 6-[(7S)-2-{3-[4-(3-Cyclopropylpyridin-2-yl)phenyl]-1H-pyrrolo[2,3-b]pyridin-5-yl}-6,7,8,9-tetrahydro-5H-benzo[7]annulen-7-yl]-3-oxa-6-azabicyclo[3.1.1]heptane]	100 to 1000 nM	100 to 1000 nM
Cc1ccc(-c2ccc(-c3n[nH]c4ncc(-c5ccc6c(c5)CC[C@@H](N5C7COCC5C7)CC6)cc34)cc2)nc1 [Example 115, 6-[(7S)-2-{3-[4-(5-Methylpyridin-2-yl)phenyl]-1H-pyrazolo[3,4-b]pyridin-5-yl}-6,7,8,9-tetrahydro-5H-benzo[7]annulen-7-yl]-3-oxa-6-azabicyclo[3.1.1]heptane]	> 1000 nM	100 to 1000 nM
c1cnc(-c2ccc(-c3n[nH]c4ncc(-c5ccc6c(c5)CC[C@@H](N5C7COCC5C7)CC6)cc34)cc2)c(C2CC2)c1 [Example 179, 6-[(7S)-2-{3-[4-(3-Cyclopropylpyridin-2-yl)phenyl]-1H-pyrazolo[3,4-b]pyridin-5-yl}-6,7,8,9-tetrahydro-5H-benzo[7]annulen-7-yl]-3-oxa-6-azabicyclo[3.1.1]heptane]	100 to 1000 nM	100 to 1000 nM
Cc1nn(C)nc1-c1ccc(-c2n[nH]c3ncc(-c4ccc5c(c4)CC[C@@H](N4C6COCC4C6)CC5)cc23)cc1 [Example 14, 6-[(7S)-2-{3-[4-(2,5-Dimethyl-2H-1,2,3-triazol-4-yl)phenyl]-1H-pyrazolo[3,4-b]pyridin-5-yl}-6,7,8,9-tetrahydro-5H-benzo[7]annulen-7-yl]-3-oxa-6-azabicyclo[3.1.1]heptane]	< 100 nM	100 to 1000 nM
CCc1cccnc1-c1ccc(-c2n[nH]c3ncc(-c4ccc5c(c4)CC[C@@H](N4C6COCC4C6)CC5)cc23)cc1 [Example 182, 6-[(7S)-2-{3-[4-(3-Ethylpyridin-2-yl)phenyl]-1H-pyrazolo[3,4-b]pyridin-5-yl}-6,7,8,9-tetrahydro-5H-benzo[7]annulen-7-yl]-3-oxa-6-azabicyclo[3.1.1]heptane]	< 100 nM	100 to 1000 nM
